From patent publication US12565475B2, “Small molecule compound inhibiting signal transmission path of TLR7 and TLR9 and use thereof” (AJOU UNIVERSITY INDUSTRY-ACADEMIC COOPERATION FOUNDATION, priority 2019, dated 2026)

What was measured:
TLR8 = biological target: T1, TLR8 (Homo sapiens, UniProt Q9NR97); test: TLR8-mediated TNF-α secretion (TL8-506) in PMA-differentiated THP-1 cells, ELISA; type: cell-based; conditions: differentiated THP-1, 10 or 20 μM
T1 construct: treated with TIC10-7 for 1 hour, and then treated with TL8-506 as a TLR8 agonist for 4 hours; endogenous in cells; host or cells: THP-1 differentiated with PMA
T1 sequence (Q9NR97 27-1041): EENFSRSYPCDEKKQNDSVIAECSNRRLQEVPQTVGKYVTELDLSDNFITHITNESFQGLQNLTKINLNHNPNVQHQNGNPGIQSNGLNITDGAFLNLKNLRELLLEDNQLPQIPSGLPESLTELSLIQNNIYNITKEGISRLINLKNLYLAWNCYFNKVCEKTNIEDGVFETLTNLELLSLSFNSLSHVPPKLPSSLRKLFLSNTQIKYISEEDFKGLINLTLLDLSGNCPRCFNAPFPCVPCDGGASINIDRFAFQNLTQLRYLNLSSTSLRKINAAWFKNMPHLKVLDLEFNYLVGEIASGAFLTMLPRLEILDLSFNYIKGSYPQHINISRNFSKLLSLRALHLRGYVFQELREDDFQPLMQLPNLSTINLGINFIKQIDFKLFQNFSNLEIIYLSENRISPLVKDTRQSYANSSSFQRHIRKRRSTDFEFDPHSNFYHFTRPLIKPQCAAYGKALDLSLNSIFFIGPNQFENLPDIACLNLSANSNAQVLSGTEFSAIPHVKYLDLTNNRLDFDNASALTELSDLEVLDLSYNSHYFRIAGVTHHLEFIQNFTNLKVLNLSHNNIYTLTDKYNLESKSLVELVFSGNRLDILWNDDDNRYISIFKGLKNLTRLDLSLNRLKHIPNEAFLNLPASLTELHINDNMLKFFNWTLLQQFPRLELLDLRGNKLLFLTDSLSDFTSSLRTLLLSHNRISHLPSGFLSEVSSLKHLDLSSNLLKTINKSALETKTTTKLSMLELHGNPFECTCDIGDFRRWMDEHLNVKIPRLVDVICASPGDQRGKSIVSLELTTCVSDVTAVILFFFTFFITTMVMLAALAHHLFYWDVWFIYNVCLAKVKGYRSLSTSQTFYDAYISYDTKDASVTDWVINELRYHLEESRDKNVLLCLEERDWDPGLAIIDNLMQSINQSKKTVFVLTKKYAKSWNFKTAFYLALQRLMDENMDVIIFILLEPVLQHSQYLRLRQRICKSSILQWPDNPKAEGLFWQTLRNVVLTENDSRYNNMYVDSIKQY
Method: A murine macrophage cell line (RAW 264.7) was obtained from the Korean Cell Line Bank (KCLB) and the Korean Cell Line Research Foundation (KCLRF). The cells were cultured in DMEM (Dulbecco's modified Eagle's medium; HyClone Laboratories, Inc., San Angelo, Texas, USA) supplemented with 1% penicillin/streptomycin (HyClone Laboratories, Inc.) antibiotic mixture and 10% fetal bovine serum (FBS; Thermo Fisher Scientific, Inc., Waltham, MA, USA). A human monocytic cell line (THP-1) was provided by Dr. Chang-Hee Suh, Ajou University School of Medicine, Suwon, Korea. […]
Agonists specific to TLR1/TLR2 (Pam3CSK4), TLR2/TLR6 (FSL-1), TLR3 (Poly I:C), TLR7 (imiquimod), and TLR8 (TL8-506) were purchased from InvivoGen Ltd. (Hong-Kong, China), and a TLR4-specific agonist (LPS from E. coli O111:B4) was purchased from Sigma-Aldrich, Inc. For TLR9-specific stimulation, class C CpG-ODN (ODN2395, 5′-TCGTCGTTTTCGGCGCGCGCCG-3′) having full phosphorothioate backbone modification was synthesized (Bioneer, Inc., Daejeon, Korea). […] The cells were treated with test compounds or a control medium for 1 hour, and then stimulated with a TLR agonist for 4 hours, or 24 hours in the case of poly(I:C), and the cytokine secretion was monitored. […]

TLR2/6 = biological target: T2, TLR2/6 (Mus musculus, UniProt Q9EPW9+Q9QUN7); test: TLR2/6-mediated TNF-α secretion (FSL-1), ELISA; type: cell-based, murine; conditions: RAW 264.7, 10 or 20 μM
T2 construct: endogenous in cells; host or cells: RAW 264.7
T2 sequence (Q9QUN7 25-784): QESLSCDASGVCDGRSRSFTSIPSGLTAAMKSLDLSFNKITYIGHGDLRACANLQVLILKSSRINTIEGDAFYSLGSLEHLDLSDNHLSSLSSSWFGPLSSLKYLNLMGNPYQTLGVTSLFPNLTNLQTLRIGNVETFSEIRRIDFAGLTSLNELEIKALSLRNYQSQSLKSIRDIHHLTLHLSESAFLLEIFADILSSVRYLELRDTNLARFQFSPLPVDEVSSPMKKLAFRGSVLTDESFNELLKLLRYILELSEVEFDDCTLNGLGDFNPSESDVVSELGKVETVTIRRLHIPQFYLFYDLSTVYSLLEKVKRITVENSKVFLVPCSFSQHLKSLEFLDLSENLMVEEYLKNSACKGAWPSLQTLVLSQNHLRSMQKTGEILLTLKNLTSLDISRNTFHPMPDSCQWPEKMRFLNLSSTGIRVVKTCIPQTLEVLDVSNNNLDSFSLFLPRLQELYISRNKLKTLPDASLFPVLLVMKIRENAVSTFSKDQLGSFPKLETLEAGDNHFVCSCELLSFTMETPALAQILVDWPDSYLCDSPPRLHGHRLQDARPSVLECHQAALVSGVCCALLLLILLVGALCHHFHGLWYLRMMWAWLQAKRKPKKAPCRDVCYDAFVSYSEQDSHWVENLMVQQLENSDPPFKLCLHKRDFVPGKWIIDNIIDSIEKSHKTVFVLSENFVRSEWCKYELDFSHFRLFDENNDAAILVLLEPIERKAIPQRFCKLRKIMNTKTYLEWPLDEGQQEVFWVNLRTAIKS
T2 sequence (Q9EPW9 28-795): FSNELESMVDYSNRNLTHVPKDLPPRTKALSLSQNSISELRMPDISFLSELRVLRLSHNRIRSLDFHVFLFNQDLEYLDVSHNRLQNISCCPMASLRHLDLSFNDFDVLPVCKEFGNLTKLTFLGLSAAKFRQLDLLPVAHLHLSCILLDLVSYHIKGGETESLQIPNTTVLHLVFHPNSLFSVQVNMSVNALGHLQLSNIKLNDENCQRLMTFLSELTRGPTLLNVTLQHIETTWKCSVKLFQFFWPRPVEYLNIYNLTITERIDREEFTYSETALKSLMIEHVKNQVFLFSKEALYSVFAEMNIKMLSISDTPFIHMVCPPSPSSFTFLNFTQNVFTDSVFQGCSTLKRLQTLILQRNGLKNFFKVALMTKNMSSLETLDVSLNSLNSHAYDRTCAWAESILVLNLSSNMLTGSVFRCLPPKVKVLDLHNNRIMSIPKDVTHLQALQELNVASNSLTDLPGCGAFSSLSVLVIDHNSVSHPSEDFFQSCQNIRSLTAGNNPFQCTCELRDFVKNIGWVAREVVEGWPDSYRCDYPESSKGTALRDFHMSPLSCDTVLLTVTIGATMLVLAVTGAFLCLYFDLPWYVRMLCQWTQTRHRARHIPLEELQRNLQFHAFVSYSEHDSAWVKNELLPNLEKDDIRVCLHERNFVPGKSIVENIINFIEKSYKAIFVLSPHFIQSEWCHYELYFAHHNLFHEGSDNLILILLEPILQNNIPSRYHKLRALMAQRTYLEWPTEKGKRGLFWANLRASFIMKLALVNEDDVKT
Method: Agonists specific to TLR1/TLR2 (Pam3CSK4), TLR2/TLR6 (FSL-1), TLR3 (Poly I:C), TLR7 (imiquimod), and TLR8 (TL8-506) were purchased from InvivoGen Ltd. (Hong-Kong, China), and a TLR4-specific agonist (LPS from E. coli O111:B4) was purchased from Sigma-Aldrich, Inc. For TLR9-specific stimulation, class C CpG-ODN (ODN2395, 5′-TCGTCGTTTTCGGCGCGCGCCG-3′) having full phosphorothioate backbone modification was synthesized (Bioneer, Inc., Daejeon, Korea). All TLR agonists were dissolved in deionized water and applied to a culture media for TLR activation. The cells were treated with test compounds or a control medium for 1 hour, and then stimulated with a TLR agonist for 4 hours, or 24 hours in the case of poly(I:C), and the cytokine secretion was monitored.
RAW 264.7 or differentiated THP-1 cell lines were seeded onto a 96-well culture plate at a density of 2×10^4 cells/well. The cells were treated with test compounds for 1 hour followed by the stimulation with TLR agonists for 4 hours. The supernatant was transferred to pre-coated assay plates, and the secretion levels of mouse and human TNF-α were measured by respective ELISA kits (Invitrogen, Carlsbad, CA, USA). […] Absorbance was measured by a microplate reader spectrophotometer (Molecular Devices, Inc., San Jose, CA, USA), and data was interpolated from a standard curve using SoftMax Pro 5.3 software (Molecular Devices, Inc.). […]

COc1ccc(CNc2ncc(-c3ccc4c(c3)OCO4)n2C)c(OC)c1 [TIC10-7, 5-(2H-1,3-benzodioxol-5-yl)-N-[(2,4-dimethoxyphenyl)methyl]-1-methyl-1H-imidazol-2-amine]
TLR8-mediated TNF-α secretion (TLR8): least affected | effect on TLR2/6-mediated cytokine (TNF-α) production (TLR2/6): no effect
